Source: patent publication US5703079A, “Tetrahydrofuran antifungals” (Schering Corporation, priority 1995, dated 1997)

Columns and labels:
[1] = serum levels, half lives and tissue distribution following oral dosing; assay type: in vivo; details: methyl cellulose formulation, mice, rats, dogs and monkeys
Aspergillus = experiment: in vitro antifungal broth dilution, Aspergillus (37 strains); assay type: cell-based, Aspergillus (flavus, fumigatus and other species); details: for percentages of strains with MICs ≤1 mcg/ml / percentages of strains with MFCs ≤1 mcg/ml: Aspergillus, 37 strains; for percentages of strains with MICs ≤1 mcg/ml: Table Q; for percentages of strains with MFCs ≤1 mcg/ml: Table R
Experimental: (§1) The in vitro antifungal activity tests were performed via conventional broth dilution methods in Sabouraud dextrose broth ("SDB") medium and Eagles Minimum Essential Medium ("EMEM") against a large number of fungi. Minimum Inhibitory Concentrations ("MICs") were measured after 24, 48 and 72 hour tests. In many cases, Minimum Fungicidial Concentrations ("MFCS") were measured after 48 and 72 hours.

Candida albicans = experiment: in vitro antifungal broth dilution, Candida albicans (26 strains); assay type: cell-based; details: for percentages of strains with MICs ≤1 mcg/ml: Table Q; for percentages of strains with MFCs ≤1 mcg/ml: Table R; for MIC 90: Table S, MIC for 90% of the strains
Experimental: as §1

Candida krusei = experiment: in vitro antifungal broth dilution, Candida krusei (16 strains); assay type: cell-based; details: for percentages of strains with MICs ≤1 mcg/ml: Table Q; for percentages of strains with MFCs ≤1 mcg/ml: Table R
Experimental: as §1

[2] = test system: Candida tropicalis & stellatoidea; experiment: in vitro antifungal broth dilution, Candida tropicalis & stellatoidea (5 strains); assay type: cell-based; details: for percentages of strains with MICs ≤1 mcg/ml: Table Q; for percentages of strains with MFCs ≤1 mcg/ml: Table R; for MIC 90: Table S, MIC for 90% of the strains
Experimental: as §1

Candida glabrata = experiment: in vitro antifungal broth dilution, Candida glabrata (9 strains); assay type: cell-based; details: for percentages of strains with MICs ≤1 mcg/ml: Table Q; for percentages of strains with MFCs ≤1 mcg/ml: Table R; for MIC 90: Table S, MIC for 90% of the strains
Experimental: as §1

Cryptococcus neoformans = experiment: in vitro antifungal broth dilution, Cryptococcus neoformans (3 strains); assay type: cell-based; details: for percentages of strains with MICs ≤1 mcg/ml: Table Q; for percentages of strains with MFCs ≤1 mcg/ml: Table R; for MIC 90: Table S, MIC for 90% of the strains
Experimental: as §1

Dermatophytes = experiment: in vitro antifungal broth dilution, dermatophytes (6 strains); assay type: cell-based, T. rubrum, T. mentagrophytes, and T. tonsurans; details: for percentages of strains with MICs ≤1 mcg/ml: Table Q; for percentages of strains with MFCs ≤1 mcg/ml: Table R
Experimental: as §1

Compound	percentages of strains with MICs ≤1 mcg/ml (Aspergillus) [%]	percentages of strains with MICs ≤1 mcg/ml (Candida albicans) [%]	percentages of strains with MFCs ≤1 mcg/ml (Candida albicans) [%]	percentages of strains with MICs ≤1 mcg/ml (Candida krusei) [%]	percentages of strains with MICs ≤1 mcg/ml [2] [%]	percentages of strains with MFCs ≤1 mcg/ml [2] [%]	MIC 90 [2]	percentages of strains with MICs ≤1 mcg/ml (Candida glabrata) [%]	percentages of strains with MFCs ≤1 mcg/ml (Candida glabrata) [%]	percentages of strains with MICs ≤1 mcg/ml (Cryptococcus neoformans) [%]	percentages of strains with MFCs ≤1 mcg/ml (Cryptococcus neoformans) [%]	MIC 90 (Cryptococcus neoformans)	percentages of strains with MICs ≤1 mcg/ml (Dermatophytes) [%]	MIC 90 (Candida albicans)	MIC 90 (Candida glabrata) [MCG/ML]	also measured
CCC(C(C)O)n1ncn(-c2ccc(N3CCN(c4ccc(OCC5COC(Cn6cncn6)(c6ccc(F)cc6F)C5)cc4)CC3)cc2)c1=O (centres unmarked) [drawing 24]																serum levels compared to azoles of similar structure [1]: consistently higher serum levels
CCC(C(C)O)n1ncn(-c2ccc(N3CCN(c4ccc(OCC5COC(Cn6cncn6)(c6ccc(F)cc6F)C5)cc4)CC3)cc2)c1=O (centres unmarked) [drawing 25]	100	100	100	100	100	100	.117 MCG/ML	22	22	100	100	.05 MCG/ML	100			percentages of strains with MFCs ≤1 mcg/ml (Aspergillus; listed as drawing 29): 50%; percentages of strains with MFCs ≤1 mcg/ml (Candida krusei; listed as drawing 29): 88%; percentages of strains with MFCs ≤1 mcg/ml (Dermatophytes; listed as drawing 29): 67%
CCC(C(C)O)n1ncn(-c2ccc(N3CCN(c4ccc(OCC5COC(Cn6cncn6)(c6ccc(F)cc6F)C5)cc4)CC3)cc2)c1=O (centres unmarked) [drawing 26]		100	100		100	100	.117 MCG/ML	22	22	100	100	.007 MCG/ML		.174 MCG/ML	17.1	percentages of strains with MFCs ≤1 mcg/ml (Aspergillus; listed as drawing 30): 62%; percentages of strains with MFCs ≤1 mcg/ml (Candida krusei; listed as drawing 30): 94%; percentages of strains with MFCs ≤1 mcg/ml (Dermatophytes; listed as drawing 30): 83%
CCC(C(C)O)n1ncn(-c2ccc(N3CCN(c4ccc(OCC5COC(Cn6cncn6)(c6ccc(F)cc6F)C5)cc4)CC3)cc2)c1=O (centres unmarked) [drawing 27]		100	100		100	100	.354 MCG/ML	33	22	100	100	.101 MCG/ML		.139 MCG/ML	28.8	percentages of strains with MFCs ≤1 mcg/ml (Aspergillus; listed as drawing 31): 89%; percentages of strains with MFCs ≤1 mcg/ml (Candida krusei; listed as drawing 31): 100%; percentages of strains with MFCs ≤1 mcg/ml (Dermatophytes; listed as drawing 31): 100%
OC(Cn1cncn1)(Cn1cncn1)c1ccc(F)cc1F [fluconazole, reference compound]	0	100	100	0	100	100		0	0	0	0		100			percentages of strains with MFCs ≤1 mcg/ml (Aspergillus): 0%; MFC (Aspergillus; SDB, 37 species of Aspergillus, compared to fluconazole, read-out: geometric mean MFC): ≥ 32 µg/mL; percentages of strains with MFCs ≤1 mcg/ml (Candida krusei): 0%; percentages of strains with MFCs ≤1 mcg/ml (Dermatophytes): 0%
